Measurements published in ChEMBL document CHEMBL3352453, “Inhibitory potency of flavonoid derivatives on influenza virus neuraminidase” (Bioorg Med Chem Lett, 2014).

Legend:
[1] = Inhibition of influenza B virus (B/Brisbane/60/2008) neuraminidase using MUNANA substrate pre-incubated for 30 mins before substrate addition by fluorometric assay
[2] = Selectivity index, ratio of CC50 for MDCK cells to IC50 for influenza A virus (A/Perth/16/2009(H3N2)); assay type: functional
[3] = Cytotoxicity against MDCK cells; assay type: cell-based, Canis lupus familiaris; conditions: dog

CCOC(=O)C1=C[C@@H](OC(CC)CC)[C@H](NC(C)=O)[C@@H](N)C1 [OSELTAMIVIR]
IC50 [1]: 0.0454 µM

C[C@@H]1O[C@@H](Oc2c(-c3ccc(O)c(O)c3)oc3cc(O)cc(O)c3c2=O)[C@H](O)[C@H](O)[C@H]1O [QUERCITRIN]
Ratio CC50/IC50 [2]: >4.1
IC50 [1]: 112 µM
CC50 [3]: > 446 µM

O=c1c(O[C@@H]2O[C@H](CO)[C@H](O)[C@H](O)[C@H]2O)c(-c2ccc(O)c(O)c2)oc2cc(O)cc(O)c12 [HYPEROSIDE]
Ratio CC50/IC50 [2]: >6.9
IC50 [1]: 88.1 µM
CC50 [3]: > 431 µM

C[C@@H]1O[C@@H](OC[C@H]2O[C@@H](Oc3c(-c4ccc(O)c(O)c4)oc4cc(O)cc(O)c4c3=O)[C@H](O)[C@@H](O)[C@@H]2O)[C@H](O)[C@H](O)[C@H]1O [RUTIN]
Ratio CC50/IC50 [2]: >3.4
IC50 [1]: 105 µM
CC50 [3]: > 328 µM

O=c1c(O)c(-c2ccc(O)cc2)oc2cc(O)cc(O)c12 [KAEMPFEROL]
Ratio CC50/IC50 [2]: 6.8
IC50 [1]: 90.8 µM
CC50 [3]: 581 µM

O=c1c(O[C@@H]2O[C@H](CO)[C@@H](O)[C@H](O)[C@H]2O)c(-c2ccc(O)c(O)c2)oc2cc(O)cc(O)c12 [ISOQUERCETIN]
Ratio CC50/IC50 [2]: >1.2
IC50 [1]: 384 µM
CC50 [3]: > 431 µM

O=c1cc(-c2ccc(O)c(O)c2)oc2cc(O[C@@H]3O[C@H](CO)[C@@H](O)[C@H](O)[C@H]3O)cc(O)c12 [GALUTEOLIN]
Ratio CC50/IC50 [2]: >6.7
IC50 [1]: 57.2 µM
CC50 [3]: > 446 µM
